Measurements taken from ChEMBL document CHEMBL5634084, “Design and optimization of selective and potent CDK9 inhibitors with flavonoid scaffold for the treatment of acute myeloid leukemia” (Eur J Med Chem, 2023).
In brackets after ≈: the same amount, converted by molar mass. Activity calls are given as the source filed them. No cut-off for these calls is given here.

What was measured:
[1] = target: CDK2/Cyclin A2 (Homo sapiens) (UniProt P24941+P20248); assay: Inhibition of CDK2/CyclinA2 (unknown origin) at 100 nM by ADP-Glo assay relative to control; assay type: protein-complex assay
[2] = target: CDK9/cyclin T1 (Homo sapiens) (UniProt O60563+P50750); assay: Inhibition of CDK9/CyclinT1 (unknown origin) at 100 nM by ADP-Glo assay relative to control; assay type: protein-complex assay
[3] = tested on: MV4-11; assay: Antiproliferative activity against human MV4-11 cells assessed as reduction in cell viability measured after 72 hrs; assay type: functional, cell-based; settings: MV4-11, 72 h
[4] = tested on: THP-1; assay: Antiproliferative activity against human THP-1 cells assessed as reduction in cell viability measured after 72 hrs; assay type: functional, cell-based; settings: THP-1, 72 h
[5] = Solubility of the compound in water at pH 7.4; assay type: physicochemical
[6] = tested on: SW480; assay: Antiproliferative activity against human SW480 cells assessed as reduction in cell viability measured after 72 hrs; assay type: functional, cell-based; settings: SW480, 72 h
[7] = tested on: HT-29; assay: Antiproliferative activity against human HT-29 cells assessed as reduction in cell viability measured after 72 hrs; assay type: functional, cell-based; settings: HT-29, 72 h
[8] = tested on: HCT-116; assay: Antiproliferative activity against human HCT-116 cells assessed as reduction in cell viability measured after 72 hrs; assay type: functional, cell-based; settings: HCT-116, 72 h
[9] = Metabolic stability of the compound in rat liver microsomes at 10 uM measured for 60 mins in presence of NADPH by LC-MS/MS analysis; assay type: ADME, Microsome; settings: 1 h
[10] = Metabolic stability of the compound in rat plasma at 10 uM measured for 60 mins by LC-MS/MS analysis; assay type: ADME, cell-free; settings: 1 h
[11] = tested on: MV4-11; assay: Antitumor activity against human MV4-11 cells xenografted in BALB/c mouse assessed as inhibition of tumor growth at 20 mg/kg, iv qd and measured every 2 days; assay type: functional; settings: MV4-11, 48 h, read-out: TGI
[12] = target: Cyclin-dependent kinase 4/cyclin D1 (Homo sapiens, UniProt P11802); assay: Inhibition of CDK4/CyclinD1 (unknown origin) by ADP-Glo assay; assay type: protein-complex assay
Sequence of Cyclin-dependent kinase 4/cyclin D1 (P11802 whole entry): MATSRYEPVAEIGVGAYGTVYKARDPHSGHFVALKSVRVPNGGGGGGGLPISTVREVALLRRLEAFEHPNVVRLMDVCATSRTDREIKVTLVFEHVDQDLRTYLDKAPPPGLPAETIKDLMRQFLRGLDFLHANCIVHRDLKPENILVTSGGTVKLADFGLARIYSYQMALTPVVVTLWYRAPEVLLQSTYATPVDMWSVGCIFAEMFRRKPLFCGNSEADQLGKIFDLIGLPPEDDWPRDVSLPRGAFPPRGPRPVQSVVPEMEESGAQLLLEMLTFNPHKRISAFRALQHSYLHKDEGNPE
Sequence of Cyclin-dependent kinase 4/cyclin D1 (P24385 whole entry, further chain): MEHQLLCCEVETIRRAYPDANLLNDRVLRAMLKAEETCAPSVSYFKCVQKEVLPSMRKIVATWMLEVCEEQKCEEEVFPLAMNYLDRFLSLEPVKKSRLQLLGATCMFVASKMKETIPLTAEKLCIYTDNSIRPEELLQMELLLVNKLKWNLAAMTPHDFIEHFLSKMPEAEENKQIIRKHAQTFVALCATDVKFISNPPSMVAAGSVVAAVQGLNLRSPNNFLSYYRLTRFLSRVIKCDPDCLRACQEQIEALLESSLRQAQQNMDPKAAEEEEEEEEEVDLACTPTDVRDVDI

[13] = Cytotoxicity against human L02 cells assessed as reduction in cell viability measured after 72 hrs; assay type: toxicity, cell-based
[14] = tested on: MCF7; assay: Antiproliferative activity against human MCF7 cells assessed as reduction in cell viability measured after 72 hrs; assay type: functional, cell-based; settings: MCF7, 72 h
[15] = Toxicity in BALB/c mouse xenografted with human MV4-11 cells assessed as animal's mortality at 10 to 20 mg/kg, iv qd; assay type: organism-based; settings: in vivo, dose 10-20 mg/kg
[16] = Inhibition of CDK1/CyclinA2 (unknown origin) by ADP-Glo assay; design: species or system Homo sapiens
[17] = tested on: BT-549; assay: Antiproliferative activity against human BT-549 cells assessed as reduction in cell viability measured after 72 hrs; assay type: functional, cell-based; settings: BT-549, 72 h
[18] = target: CDK6/cyclin D1 (Homo sapiens, UniProt Q00534); assay: Inhibition of CDK6/CyclinD1 (unknown origin) by ADP-Glo assay; assay type: protein-complex assay
Sequence of CDK6/cyclin D1 (P24385 whole entry): as the sequence (P24385 whole entry, further chain) above
Sequence of CDK6/cyclin D1 (Q00534 whole entry): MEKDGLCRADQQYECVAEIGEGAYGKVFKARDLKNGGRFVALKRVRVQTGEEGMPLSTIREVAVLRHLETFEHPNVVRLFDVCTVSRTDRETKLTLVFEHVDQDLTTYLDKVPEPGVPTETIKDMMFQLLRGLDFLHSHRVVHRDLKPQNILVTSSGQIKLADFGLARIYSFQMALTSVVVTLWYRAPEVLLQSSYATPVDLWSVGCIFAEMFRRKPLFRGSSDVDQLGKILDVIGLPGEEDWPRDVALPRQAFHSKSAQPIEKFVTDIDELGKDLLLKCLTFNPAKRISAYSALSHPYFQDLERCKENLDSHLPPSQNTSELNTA

[19] = tested on: MOLM-13; assay: Antiproliferative activity against human MOLM-13 cells assessed as reduction in cell viability measured after 72 hrs; assay type: functional, cell-based; settings: MOLM-13, 72 h
[20] = tested on: HL-60; assay: Antiproliferative activity against human HL-60 cells assessed as reduction in cell viability measured after 72 hrs; assay type: functional, cell-based; settings: HL-60, 72 h
[21] = tested on: A549; assay: Antiproliferative activity against human A549 cells assessed as reduction in cell viability measured after 72 hrs; assay type: functional, cell-based; settings: A549, 72 h
[22] = Cytotoxicity against human HEK293 cells assessed as reduction in cell viability measured after 72 hrs; assay type: toxicity, cell-based
[23] = tested on: HepG2; assay: Antiproliferative activity against human HepG2 cells assessed as reduction in cell viability measured after 72 hrs; assay type: functional, cell-based; settings: HepG2, 72 h
[24] = target: CDK7/Cyclin H/MNAT1 (Homo sapiens, UniProt P50613); assay: Inhibition of CDK7/Cyclin H/MAT1 (unknown origin) by ADP-Glo assay; assay type: protein-complex assay
Sequence of CDK7/Cyclin H/MNAT1 (P51946 whole entry): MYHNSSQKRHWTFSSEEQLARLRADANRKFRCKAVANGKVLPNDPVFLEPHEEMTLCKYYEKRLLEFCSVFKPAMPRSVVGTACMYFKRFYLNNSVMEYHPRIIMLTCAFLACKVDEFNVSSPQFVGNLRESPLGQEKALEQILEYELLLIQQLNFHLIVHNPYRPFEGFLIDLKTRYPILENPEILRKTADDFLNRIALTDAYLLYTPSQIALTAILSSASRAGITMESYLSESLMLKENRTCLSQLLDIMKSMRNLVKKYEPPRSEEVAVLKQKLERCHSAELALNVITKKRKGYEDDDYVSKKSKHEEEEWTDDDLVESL
Sequence of CDK7/Cyclin H/MNAT1 (P50613 whole entry): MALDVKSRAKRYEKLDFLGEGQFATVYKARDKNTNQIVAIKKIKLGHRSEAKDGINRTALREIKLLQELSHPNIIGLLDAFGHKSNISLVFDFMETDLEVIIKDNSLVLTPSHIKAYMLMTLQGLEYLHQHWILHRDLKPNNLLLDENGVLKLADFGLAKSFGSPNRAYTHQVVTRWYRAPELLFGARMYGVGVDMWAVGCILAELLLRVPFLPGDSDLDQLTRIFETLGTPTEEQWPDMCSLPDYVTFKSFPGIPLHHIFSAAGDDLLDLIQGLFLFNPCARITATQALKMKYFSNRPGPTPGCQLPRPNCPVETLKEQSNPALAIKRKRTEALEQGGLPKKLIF
Sequence of CDK7/Cyclin H/MNAT1 (P51948 whole entry, further chain): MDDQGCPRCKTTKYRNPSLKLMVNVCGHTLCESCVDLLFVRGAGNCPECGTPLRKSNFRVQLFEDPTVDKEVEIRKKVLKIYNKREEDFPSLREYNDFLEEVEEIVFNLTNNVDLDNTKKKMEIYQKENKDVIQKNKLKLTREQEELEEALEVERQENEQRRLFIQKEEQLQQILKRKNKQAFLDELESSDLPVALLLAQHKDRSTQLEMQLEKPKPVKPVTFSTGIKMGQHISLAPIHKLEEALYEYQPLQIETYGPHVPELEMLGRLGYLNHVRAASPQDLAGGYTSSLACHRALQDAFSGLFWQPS

[25] = Metabolic stability of the compound in mouse liver microsomes at 10 uM measured for 60 mins in presence of NADPH by LC-MS/MS analysis; assay type: ADME, Microsome; settings: 1 h
[26] = Toxicity in BALB/c mouse xenografted with human MV4-11 cells assessed as effect on body weight at 10 to 20 mg/kg, iv qd; assay type: organism-based; settings: in vivo, dose 10-20 mg/kg
[27] = tested on: MV4-11; assay: Antitumor activity against human MV4-11 cells xenografted in BALB/c mouse assessed as inhibition of tumor growth at 10 mg/kg, iv qd and measured every 2 days; assay type: functional; settings: MV4-11, 48 h, read-out: TGI

With `COc1cc(O)c2c(=O)cc(-c3ccc(N4CCN(C)CC4)cc3)oc2c1N1CCC(N2CCOCC2)CC1` the inhibition [1] was 24.5%, the inhibition [2] was 70% and the IC50 [3] was 210 nM.
Work on `COc1cc(O)c2c(=O)cc(-c3ccc(N4CCN(C)CC4)cc3)oc2c1N1CCN(C)CC1` yielded an inhibition [1] of 23.5%, an inhibition [2] of 75.8% and an IC50 [3] of 100 nM.
In the case of `COc1cc(O)c2c(=O)cc(-c3ccc(N4CCCNCC4)cc3)oc2c1C1=CCN(C)CC1`, the inhibition [1] is reported as 32.5%, the inhibition [2] is reported as 99% and the IC50 [3] is reported as 150 nM.
For `COc1cc(O)c2c(=O)cc(-c3ccc(N4CCN(C)CC4)cc3)oc2c1N1CCCC1`, the inhibition [1] was “inactive”, the inhibition [2] was 17.6% and the IC50 [3] was 70 nM.
In the case of `COc1cc(O)c2c(=O)cc(-c3ccc(N4CCNCC4)cc3)oc2c1N1CCNCC1`, the inhibition [1] is reported as “inactive”, the inhibition [2] is reported as 70.8% and the IC50 [3] is reported as 100 nM.
For `COc1cc(O)c2c(=O)cc(-c3ccc(N4CCN(C)CC4)cc3)oc2c1[C@H]1CCN(C)[C@@H]1CO`, the inhibition [1] was “inactive”, the inhibition [2] was 1.4% and the IC50 [3] was 70 nM.
In the case of `COc1cc(O)c2c(=O)cc(-c3ccc(N4CCC(N5CCOCC5)CC4)cc3)oc2c1N1CCNCC1`, the inhibition [1] is reported as 4.7%, the inhibition [2] is reported as 78% and the IC50 [3] is reported as 310 nM.
For `COc1cc(O)c2c(=O)cc(-c3ccc(N4CCC(N5CCOCC5)CC4)cc3)oc2c1C1=CCN(C)CC1`, the inhibition [1] was 29%, the inhibition [2] was 90.9% and the IC50 [3] was 330 nM.
`COc1cc(O)c2c(=O)cc(-c3ccc(N4CCN(C)CC4)cc3)oc2c1Oc1c(C)n[nH]c1C` gave an inhibition [1] of 14.2%, an inhibition [2] of 75.8% and an IC50 [3] of 2020 nM.
With `COc1cc(O)c2c(=O)cc(-c3ccc(N4CCN(C)CC4)cc3)oc2c1N1CCNCC1` the IC50 [4] was 4260 nM, the solubility [5] was 450 µg/mL (≈ 999 µM) and the IC50 [6] was 990 nM. For the same compound, the IC50 [7] was 880 nM, the IC50 [8] was 690 nM and the Stability [9] was “Stable”. The Stability [10] was “Stable”, the inhibition in vivo at 20 mg/kg [11] was 61% and the IC50 [12] was 311 nM. The IC50 at 72 h [13] was 17700 nM, the IC50 [14] was 1500 nM and the inhibition [1] was 8.3%. For the same compound, the Activity [15] was “Non-Toxic”, the IC50 [16] was 1780 nM and the inhibition [2] was 75%. It also gave an IC50 [17] of 1850 nM, an IC50 [18] of 2220 nM and an IC50 [19] of 1110 nM. It also gave an IC50 [20] of 120 nM, an IC50 [21] of 1150 nM and an IC50 at 72 h [22] of 25500 nM. For the same compound, the IC50 [23] was 1770 nM, the IC50 [24] was 4520 nM and the Stability [25] was “Stable”. The Activity [26] was “Non-Toxic”, the IC50 [3] was 80 nM and the inhibition in vivo at 10 mg/kg [27] was 48%.
With `COc1cc(O)c2c(=O)cc(-c3ccc(N4CCN(C)CC4)cc3)oc2c1` the inhibition [1] was “inactive”, the inhibition [2] was 5.1% and the IC50 [3] was 2020 nM.
`COc1cc(O)c2c(=O)cc(-c3ccc(N4CCCNCC4)cc3)oc2c1N1CCNCC1` gave an inhibition [1] of 18.9%, an inhibition [2] of 78% and an IC50 [3] of 210 nM.
For `COc1cc(O)c2c(=O)cc(-c3ccc(N4CCCC4)cc3)oc2c1N1CCNCC1`, the inhibition [1] was 4.7%, the inhibition [2] was 79.6% and the IC50 [3] was 170 nM.
With `COc1cc(O)c2c(=O)cc(-c3ccc(N4CCN(C)CC4)cc3)oc2c1[C@H]1CCN(C)C[C@H]1O` the inhibition [1] was 5.4%, the inhibition [2] was 64.9% and the IC50 [3] was 180 nM.
With `COc1cc(O)c2c(=O)cc(-c3ccc(N4CCNCC4)cc3)oc2c1C1=CCN(C)CC1` the inhibition [1] was “inactive”, the inhibition [2] was 98.6% and the IC50 [3] was 130 nM.
In the case of `COc1cc(O)c2c(=O)cc(-c3ccc(N4CCN(C)CC4)cc3)oc2c1N1CCCCC1`, the inhibition [1] is reported as “inactive”, the inhibition [2] is reported as 47.5% and the IC50 [3] is reported as 1230 nM.
`COc1cc(O)c2c(=O)cc(-c3ccc(N4CCOCC4)cc3)oc2c1N1CCNCC1` showed an inhibition [1] of 17.5%, an inhibition [2] of 74.4% and an IC50 [3] of 170 nM.
With `COc1cc(O)c2c(=O)cc(-c3ccc(N4CCN(C)CC4)cc3)oc2c1N1CCOCC1` the inhibition [1] was “inactive”, the inhibition [2] was 44.4% and the IC50 [3] was 110 nM.
